Results as given in ChEMBL document CHEMBL1131517, “4,4,14 alpha-trimethyl 9 beta,19-cyclo-5 alpha-26-homocholesta-24,26-dien-3 beta-ol: a potent mechanism-based inactivator of delta 24(25)- to delta 25(27)-sterol methyl transferase” (Bioorg Med Chem Lett, 1998).

Legend:
[1] = Compound was tested for inactivation of sterol methyl transferase (SMT) enzyme in Prototheca wickerhamii
[2] = tested on: Prototheca wickerhamii; test: Compound was tested for inactivation of sterol methyl transferase( SMT) enzyme in Prototheca wickerhamii

Ki [1]: 30 µM
K inact [2]: 0.3 min⁻¹
Compound: C=C/C(C)=C/CC[C@@H](C)C1CC[C@@]2(C)C3CCC4C(C)(C)C(O)CCC45CC35CCC12C (some centres not stated)
